Test results from PMC9929129, “Towards Translation of PqsR Inverse Agonists: From In Vitro Efficacy Optimization to In Vivo Proof‐of‐Principle” (Advanced Science, 2023).
Entries after “also recorded” stand apart in the source; their conditions may differ.

Key:
CYP2C19 = biological target: T1, CYP2C19 (Homo sapiens, UniProt P33261); experiment: Cytochrome P450 inhibition assay, CYP2C19; type: in vitro ADME; details: Metabolic activity
T1 construct: Cyprotex
Description: (§1) 1.4.4 Pharmacokinetic and off-target functional assays (Cyprotex)
(§2) Compound 24 was assayed at Cyprotex in functional assays for interference with important off-targets as well as important pharmacokinetic parameters. With the exception of plasma protein binding, a dose-response relationship was studied in order to calculate IC50 values.
(§3) Table S10. Information on in vitro ADMET assays performed at Cyprotex. […]
(§4) An increase in the number of colonies of at least two-fold over baseline (mean + SD of the vehicle control) and a dose response indicate a positive response. An […]
(§5) different from the vehicle control.
(§6) Where indicated, S9 fraction from the livers of Aroclor 1254-treated rats were included in the incubation at a final concentration of 4.5%. A NADPH-regenerating system was also included to ensure a steady supply of reducing equivalents.

[1] = system: Salmonella typhimurium TA98 and TA100; experiment: Mini-AMES; type: cell-based; details: @62.25 µg mL^−1 (147 × 10^−6 M); also in presence of rat liver S9 fractions
Description: P2X4 receptor (human P2RX4 gene) expressed in HEK293 cells >30
TRPA1 channel (human TRPA1 gene) expressed in CHO cells >30
TRPC6 channel (human TRPC6 gene) expressed in HEK293 cells >30
TRPV1 channel (human TRPV1 gene) expressed in HEK293 cells >30
TRPV4 channel (human TRPV4 gene) expressed in CHO cells >30
as §1, §2, §3
Approximately ten million bacteria were exposed in triplicate to 24 (1.9, 3.9, 7.8, 15.6, 31.2, 62.5 µg/mL), a negative control (vehicle) and positive controls for 90 min in medium containing a low concentration of histidine (sufficient for about 2 doublings.) The cultures were then diluted into indicator medium lacking histidine, and dispensed into 48 wells of 384-well plates (micro-plate format, MPF). […] The wells showing growth were counted and compared to the vehicle control. […]
The maximum tolerated dose of 24 in NMRI mice was conducted and analyzed at CRO ATRC Aurigon Toxicological Research Center Ltd, Hungary. […]

ENaC channel = biological target: T2, ENaC channel (Homo sapiens, UniProt P37088+P51168+P51170); experiment: Ion channel profiling at Charles River: ENaC; type: cell-based
T2 construct: host or cells: HEK293 cells
T2 sequence (P51170 whole entry): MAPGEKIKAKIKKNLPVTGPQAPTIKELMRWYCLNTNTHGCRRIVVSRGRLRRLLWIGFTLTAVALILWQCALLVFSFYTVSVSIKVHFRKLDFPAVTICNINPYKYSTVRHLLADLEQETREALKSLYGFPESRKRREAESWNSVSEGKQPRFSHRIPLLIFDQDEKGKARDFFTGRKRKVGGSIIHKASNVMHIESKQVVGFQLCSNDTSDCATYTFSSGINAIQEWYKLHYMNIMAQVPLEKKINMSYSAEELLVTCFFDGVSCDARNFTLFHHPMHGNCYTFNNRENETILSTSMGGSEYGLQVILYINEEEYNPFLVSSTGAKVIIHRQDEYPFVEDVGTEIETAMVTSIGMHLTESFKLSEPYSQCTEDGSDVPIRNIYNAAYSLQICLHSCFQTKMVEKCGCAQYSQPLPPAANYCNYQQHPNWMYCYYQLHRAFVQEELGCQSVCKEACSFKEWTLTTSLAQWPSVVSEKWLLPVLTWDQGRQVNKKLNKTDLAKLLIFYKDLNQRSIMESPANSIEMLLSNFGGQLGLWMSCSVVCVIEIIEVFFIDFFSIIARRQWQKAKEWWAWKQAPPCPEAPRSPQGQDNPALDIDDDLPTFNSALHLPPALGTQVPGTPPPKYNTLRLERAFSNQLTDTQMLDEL
T2 sequence (P37088 whole entry): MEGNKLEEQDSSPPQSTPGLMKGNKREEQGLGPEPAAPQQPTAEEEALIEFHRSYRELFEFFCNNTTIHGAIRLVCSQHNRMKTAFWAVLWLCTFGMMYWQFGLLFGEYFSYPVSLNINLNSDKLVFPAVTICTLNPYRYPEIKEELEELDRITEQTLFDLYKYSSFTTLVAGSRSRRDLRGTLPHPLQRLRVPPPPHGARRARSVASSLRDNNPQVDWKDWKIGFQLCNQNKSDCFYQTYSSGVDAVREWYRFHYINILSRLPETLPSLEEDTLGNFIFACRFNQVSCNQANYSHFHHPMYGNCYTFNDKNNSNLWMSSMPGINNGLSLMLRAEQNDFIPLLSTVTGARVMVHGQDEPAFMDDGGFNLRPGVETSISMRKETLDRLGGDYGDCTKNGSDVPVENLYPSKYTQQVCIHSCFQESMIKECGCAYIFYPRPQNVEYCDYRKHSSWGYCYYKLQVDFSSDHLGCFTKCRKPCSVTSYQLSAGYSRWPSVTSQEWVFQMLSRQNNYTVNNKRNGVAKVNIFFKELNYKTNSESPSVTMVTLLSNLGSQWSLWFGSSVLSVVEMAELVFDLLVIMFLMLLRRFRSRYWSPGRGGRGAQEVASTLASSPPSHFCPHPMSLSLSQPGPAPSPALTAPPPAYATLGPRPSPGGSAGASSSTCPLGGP
T2 sequence (P51168 whole entry): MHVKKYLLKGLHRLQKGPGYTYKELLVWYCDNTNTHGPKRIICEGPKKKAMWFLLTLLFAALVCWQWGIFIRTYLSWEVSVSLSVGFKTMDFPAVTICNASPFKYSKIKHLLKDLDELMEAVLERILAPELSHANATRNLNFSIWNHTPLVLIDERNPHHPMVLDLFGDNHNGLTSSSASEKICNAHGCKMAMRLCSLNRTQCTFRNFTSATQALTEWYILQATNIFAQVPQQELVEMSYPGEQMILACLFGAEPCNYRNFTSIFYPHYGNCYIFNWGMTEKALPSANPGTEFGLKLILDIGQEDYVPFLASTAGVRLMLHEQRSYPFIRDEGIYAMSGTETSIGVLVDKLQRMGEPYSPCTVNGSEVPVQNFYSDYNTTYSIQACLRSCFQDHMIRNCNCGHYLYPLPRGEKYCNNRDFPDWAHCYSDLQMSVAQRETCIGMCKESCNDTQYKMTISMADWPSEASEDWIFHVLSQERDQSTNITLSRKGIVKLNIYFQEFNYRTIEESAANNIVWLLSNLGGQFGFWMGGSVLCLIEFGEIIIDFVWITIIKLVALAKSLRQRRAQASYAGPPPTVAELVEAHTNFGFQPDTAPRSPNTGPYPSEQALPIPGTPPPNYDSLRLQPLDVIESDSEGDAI
Description: (§7) 1.4.3 Ion Channel Profiling at Charles River
Table S9. Compound 24 was tested against the following ion channels at Charles River Laboratories.
ASSAY TYPE ION CHANNEL AND EXPRESSION SYSTEM ESTIMATED […]
ScreenPatch Assay Kv1.3 potassium channel (human KCNA3 gene) expressed in CHO
ENaC channel (human SCNN1A, SCNN1B and SCNN1G genes, >30
(§8) FLIPR Assay expressed in HEK293 cells
GABAA α5/β3/γ2 ionotropic receptor (human GABRA5, GABRB3, >30
and GABRG2 genes, expressed in HEK293 cells

P2X4 receptor = biological target: T3, P2X4 receptor (Homo sapiens, UniProt Q99571); experiment: Ion channel profiling at Charles River: P2X4; type: cell-based; details: expressed in HEK293 cells; read-out: ESTIMATED IC50
T3 construct: host or cells: HEK293 cells
T3 sequence (Q99571 whole entry): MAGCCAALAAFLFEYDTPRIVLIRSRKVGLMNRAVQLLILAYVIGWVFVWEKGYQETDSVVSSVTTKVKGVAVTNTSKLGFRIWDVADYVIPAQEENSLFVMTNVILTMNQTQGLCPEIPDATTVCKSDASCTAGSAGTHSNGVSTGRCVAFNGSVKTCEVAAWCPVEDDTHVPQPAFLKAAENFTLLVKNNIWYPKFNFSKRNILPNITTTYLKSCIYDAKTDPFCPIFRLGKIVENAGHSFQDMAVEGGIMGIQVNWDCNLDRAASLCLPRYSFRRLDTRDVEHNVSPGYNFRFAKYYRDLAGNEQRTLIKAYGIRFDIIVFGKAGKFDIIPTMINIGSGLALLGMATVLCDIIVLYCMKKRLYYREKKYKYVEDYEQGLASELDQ
Description: as §7
(§9) Table S9. Compound 24 was tested against the following ion channels at Charles River Laboratories. […]
as §8
GABAA α5/β3/γ2 ionotropic receptor (human GABRA5, GABRB3, >30 and GABRG2 genes, expressed in HEK293 cells
P2X4 receptor (human P2RX4 gene) expressed in HEK293 cells >30 […]
as §4, §5, §6

TRPA1 channel = biological target: T4, TRPA1 channel (Homo sapiens, UniProt O75762); experiment: Ion channel profiling at Charles River: TRPA1; type: cell-based; details: expressed in CHO cells; read-out: ESTIMATED IC50
T4 construct: host or cells: CHO cells
T4 sequence (O75762 whole entry): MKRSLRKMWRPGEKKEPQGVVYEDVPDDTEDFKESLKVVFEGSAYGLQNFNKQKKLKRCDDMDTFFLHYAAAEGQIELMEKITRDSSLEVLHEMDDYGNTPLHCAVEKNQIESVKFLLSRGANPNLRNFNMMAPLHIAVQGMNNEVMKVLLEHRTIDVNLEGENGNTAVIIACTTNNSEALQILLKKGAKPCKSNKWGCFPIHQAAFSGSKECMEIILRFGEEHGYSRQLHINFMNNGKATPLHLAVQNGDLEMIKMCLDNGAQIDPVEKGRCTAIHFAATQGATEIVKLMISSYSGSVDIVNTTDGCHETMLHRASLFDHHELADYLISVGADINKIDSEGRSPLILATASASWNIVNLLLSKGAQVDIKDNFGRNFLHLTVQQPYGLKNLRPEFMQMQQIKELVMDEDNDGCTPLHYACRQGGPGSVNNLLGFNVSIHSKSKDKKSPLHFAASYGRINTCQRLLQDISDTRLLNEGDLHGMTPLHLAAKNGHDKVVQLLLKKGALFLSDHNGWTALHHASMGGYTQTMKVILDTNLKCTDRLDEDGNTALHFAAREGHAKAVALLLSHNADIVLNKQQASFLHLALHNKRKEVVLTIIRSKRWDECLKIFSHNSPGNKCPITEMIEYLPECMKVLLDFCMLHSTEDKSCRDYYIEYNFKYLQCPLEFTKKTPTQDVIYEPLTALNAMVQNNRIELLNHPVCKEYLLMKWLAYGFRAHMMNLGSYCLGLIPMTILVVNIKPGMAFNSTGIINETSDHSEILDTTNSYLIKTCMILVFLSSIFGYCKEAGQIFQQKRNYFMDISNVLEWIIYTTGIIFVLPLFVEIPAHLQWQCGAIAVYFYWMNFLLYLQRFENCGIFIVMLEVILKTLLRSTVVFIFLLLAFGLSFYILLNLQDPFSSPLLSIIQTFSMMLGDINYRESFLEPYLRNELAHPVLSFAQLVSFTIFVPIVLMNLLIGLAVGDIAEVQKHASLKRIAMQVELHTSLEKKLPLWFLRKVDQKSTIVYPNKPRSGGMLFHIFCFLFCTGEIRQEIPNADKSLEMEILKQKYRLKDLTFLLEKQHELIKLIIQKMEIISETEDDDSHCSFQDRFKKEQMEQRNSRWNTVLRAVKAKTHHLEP
Description: as §7, §9
ScreenPatch Assay Kv1.3 potassium channel (human KCNA3 gene) expressed in CHO […]
as §8
GABAA α5/β3/γ2 ionotropic receptor (human GABRA5, GABRB3, >30 and GABRG2 genes, expressed in HEK293 cells […]
TRPA1 channel (human TRPA1 gene) expressed in CHO cells >30 […]
as §4, §5, §6

T1 sequence (P33261 whole entry): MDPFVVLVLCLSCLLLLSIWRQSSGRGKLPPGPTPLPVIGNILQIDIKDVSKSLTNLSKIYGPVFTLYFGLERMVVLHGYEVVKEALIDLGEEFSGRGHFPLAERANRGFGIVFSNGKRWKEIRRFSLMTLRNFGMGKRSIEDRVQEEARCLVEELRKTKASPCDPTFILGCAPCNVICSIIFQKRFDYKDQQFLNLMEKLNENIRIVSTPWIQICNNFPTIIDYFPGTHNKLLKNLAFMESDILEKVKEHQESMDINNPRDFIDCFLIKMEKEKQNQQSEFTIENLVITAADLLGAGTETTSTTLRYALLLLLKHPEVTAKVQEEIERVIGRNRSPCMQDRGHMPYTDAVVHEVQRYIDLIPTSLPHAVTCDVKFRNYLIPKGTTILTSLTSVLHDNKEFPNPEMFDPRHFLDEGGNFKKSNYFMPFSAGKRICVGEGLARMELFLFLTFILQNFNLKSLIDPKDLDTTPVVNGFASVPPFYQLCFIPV

`CC(C)Oc1ccc(-c2ncc(CNc3ccnc(C(F)(F)F)c3)cn2)cc1Cl` [Compound 24] was tested, and the IC50 (CYP2C19) was over 25 µM, the “Mini‐AMES genotoxicity” value [1] was “no genotoxicity; also recorded: Negative @62.25 µg mL^−1 (147 × 10^−6 M)” and the IC50 (ENaC channel) was over 30 µM. For the same molecule, the IC50 (P2X4 receptor) was over 30 µM and the IC50 (TRPA1 channel) was over 30 µM.
